Laboratory results from patent US9174979B2, “Phenanthroindolizidine compound and NFκB inhibitor containing same as active ingredient” (KABUSHIKI KAISHA YAKULT HONSHA, priority 2008, dated 2015).
In brackets after ≈: the same amount, converted by molar mass. Read-outs that look alike come from different tables or passages of the source.

Tests used:
NFκB = NFκB luciferase reporter assay in SW480/NRE-Luc cells stimulated with TNFα; format: cell-based, human; conditions: for IC50: Homo sapiens
Text: (§1) The action of the phenanthroindolizidine alkaloid compound of the present invention on the NFκB activity was studied in a luciferase assay. Human colon cancer SW480 cells were transfected with pNFκB-Luc Plasmid (Stratagene), which is a reporter vector in which a five-time tandem repeat of the NFκB responsive element (NRE) is integrated into the upstream of the luciferase gene, using Lipofectamine 2000 (Invitrogen Corporation) in accordance with the attached operating procedure. Subsequently, the cells were cultured in an RPMI1640 medium containing 10% FBS, 100 U/mL penicillin, 100 μg/mL streptomycin, and 0.5 mg/mL G418 to produce SW480 cells having the luciferase gene, the expression of which is regulated by NRE, stably introduced therein (SW480/NRE-Luc cells). Likewise, SW480 cells were transfected with pGL3-Control Vector (Promega Corporation), which is a reporter vector in which the SV40 promoter is integrated into the upstream of the luciferase gene, to produce SW480 cells having the luciferase gene, the expression of which is regulated by the SV40 promoter, stably introduced therein (SW480/SV40-Luc cells). The SW480/NRE-Luc cells or the SW480/SV40-Luc cells were suspended in an RPMI1640 medium containing 10% FBS, 100 U/mL penicillin, and 100 μg/mL streptomycin (10% FBS/RPMI1640), and then seeded in a 96-well microplate, followed by culturing under conditions of 5% CO2 and at 37° C. (5000 cells/well). After an overnight culture, the compound of the present invention was added, followed by culturing for one hour. Further, 50 ng/mL TNFα (Sigma-Aldrich Corporation) was added, followed by culturing for four hours. Subsequently, a Steady-Glo Luciferase Assay reagent (Promega Corporation) was added, and the luminescent intensity was detected by SpectraMax M5e (Molecular Devices, Inc.) to measure the intracellular luciferase activity. It is to be noted that the action of the compound of the present invention on the NFκB activity or the SV40 promoter activity was shown as IC50 values (the concentration of a test compound needed for 50% inhibition of the induction of the luciferase expression).

SV40 promoter = SV40 promoter luciferase reporter assay in SW480/SV40-Luc cells; format: cell-based, human; conditions: for IC50: Homo sapiens
Text: as §1

[1] = system: human colon cancer SW480 cells; experiment: Inhibitory action on the proliferation of SW480 cells; format: cell-based; conditions: 48 hours culture, TetraColor ONE; for IC50: Homo sapiens, SW480
Procedure: (§2) The action of the phenanthroindolizidine alkaloid compound of the present invention on the proliferation of human colon cancer SW480 cells, HT-29 cells, and human non-small cell lung cancer A549 cells was studied. The SW480 cells were suspended in a 10% FBS/RPMI1640 and then seeded in a 96-well microplate, followed by culturing in 5% CO2 at 37° C. (2000 cells/well). The A549 cells and the HT-29 cells were each suspended in a DMEM medium containing 10% FBS, 100 U/mL penicillin, and 100 μg/mL streptomycin (10% FBS/DMEM) and a DMEM F-12 HAM medium containing 10% FBS, 100 U/mL penicillin, and 100 μg/mL streptomycin (10% FBS/DMEM F12 HAM), and then seeded in 96-well microplates, followed by culturing in 5% CO2 at 37° C. (1000 cells/well). After an overnight culture, the compound of the present invention was added, followed by further culturing for 48 hours (SW480 cells) and 96 hours (A549 cells and HT-29 cells). After culturing, the number of viable cells was counted using TetraColor ONE (Seikagaku Corporation) in accordance with the attached operating procedure. The results were expressed as the concentration of a test compound needed for 50% inhibition of the proliferation of the cells (IC50).

[2] = system: human colon cancer HT-29 cells; experiment: Inhibitory action on the proliferation of HT-29 cells; format: cell-based; conditions: 96 hours culture, TetraColor ONE; for IC50: Homo sapiens, HT-29
Procedure: as §2

[3] = system: human non-small cell lung cancer A549 cells; experiment: Inhibitory action on the proliferation of A549 cells; format: cell-based; conditions: 96 hours culture, TetraColor ONE; for IC50: Homo sapiens, A549
Procedure: as §2

mice = experiment: Animal toxicity test in mice transplanted with Meth A cells; format: in vivo, mouse; conditions: intravenous on days 1, 5, 9, observed for three weeks
Procedure: Also, the toxicity of known phenanthroindolizidine alkaloid compounds in mice, namely (12aS,13S)-6,7-dimethoxy-9,10,11,12,12a,13-hexahydro-9a-aza-cyclopenta[b]triphenylene-3,13-diol (known compound 1; refer to WO01/023384) and (12aS,13S)-3,6,7-trimethoxy-9,10,11,12,12a,13-hexahydro-9a-aza-cyclopenta[b]triphenylene-13-ol (known compound 2; refer to Planta Med., 2002, 68: 186-188), was simultaneously studied. To a control group, a physiological saline solution as a solvent, was administered.

[4] = SW480, read-out: NFκB inhibitory activity IC50
[5] = SW480, read-out: SV40 promoter inhibitory activity IC50
[6] = SW480/NRE-Luc cells, 50 ng/mL TNFα, luciferase expression
[7] = SW480/SV40-Luc cells, luciferase expression

Compound | IC50 (NFκB; [4]) | IC50 (SV40 promoter; [5]) | IC50 [1] | IC50 [2] | IC50 [3] | NFκB inhibitory activity IC50 (NFκB; [6]) | SV40 promoter inhibitory activity IC50 (SV40 promoter; [7]) | SW480 proliferation inhibitory action IC50 [1] | HT-29 proliferation inhibitory action IC50 [2] | A549 proliferation inhibitory action IC50 [3] | further results
COc1cc2c3c(c4ccc(O)cc4c2c(OC)c1OC)[C@H](O)[C@@H]1CCCN1C3.Cl [Compound 1, (12aS,13S)-5,6,7-trimethoxy-9,10,11,12,12a,13-hexahydro-9a-aza-cyclopenta[b]triphenylene-3,13-diol hydrochloride] | 0.668 µg/mL | > 10 µg/mL | 1.97 µg/mL | 0.637 µg/mL | 0.56 µg/mL |  |  |  |  |  | Mortality rate (mice; total dose 25 mg/kg): 0/5; Mortality rate (mice; total dose 50 mg/kg): 0/5
COc1cc2c3c(c4ccc(O)cc4c2c(OC)c1OC)[C@@H](O)[C@H]1CCCN1C3.Cl [Compound 2, (12aR,13R)-5,6,7-trimethoxy-9,10,11,12,12a,13-hexahydro-9a-aza-cyclopenta[b]triphenylene-3,13-diol hydrochloride] | 0.001 µg/mL | > 1 µg/mL | 0.0036 µg/mL | 0.0047 µg/mL | 0.0025 µg/mL |  |  |  |  |  | 
Cl.Oc1ccc2c3c(c4ccccc4c2c1)CN1CCC[C@H]1[C@H]3O [Compound 3, (12aS,13S)-9,10,11,12,12a,13-hexahydro-9a-aza-cyclopenta[b]triphenylene-3,13-diol hydrochloride] | 0.173 µg/mL | > 10 µg/mL | 0.405 µg/mL | 0.14 µg/mL | 0.107 µg/mL |  |  |  |  |  | Mortality rate (mice; total dose 25 mg/kg): 0/5; Mortality rate (mice; total dose 50 mg/kg): 0/5
Cl.Oc1ccc2c3c(c4ccc(F)cc4c2c1)CN1CCC[C@H]1[C@H]3O [Compound 4, (12aS,13S)-6-fluoro-9,10,11,12,12a,13-hexahydro-9a-aza-cyclopenta[b]triphenylene-3,13-diol hydrochloride] | 0.286 µg/mL | > 10 µg/mL | 0.503 µg/mL | 0.218 µg/mL | 0.152 µg/mL |  |  |  |  |  | 
COc1cc2c3c(c4ccc(O)cc4c2cc1OC)[C@H](OC(C)=O)[C@@H]1CCCN1C3.Cl [Compound 5, acetic acid(12aS,13S)-3-hydroxy-6,7-dimethoxy-9,10,11,12,12a,13-hexahydro-9a-aza-cyclopenta[b]triphenylene-13-yl ester hydrochloride] |  |  |  |  |  | 0.027 µg/mL | >0.1 µg/mL | 0.005 µg/mL | 0.0023 µg/mL | 0.0005 µg/mL | Mortality rate (mice; total dose 25 mg/kg): 0/5; Mortality rate (mice; total dose 50 mg/kg): 0/5
COc1cc2c3c(c4ccc(O)cc4c2cc1OC)C(N)[C@@H]1CCCN1C3.Cl (stereo partly drawn) [Compound 7, (S)-13-amino-6,7-dimethoxy-9,10,11,12,12a,13-hexahydro-9a-aza-cyclopenta[b]triphenylene-3-ol hydrochloride] | 0.468 µg/mL | > 10 µg/mL | 2.34 µg/mL | 0.243 µg/mL | 0.265 µg/mL |  |  |  |  |  | 
CCOc1cc2c3c(c4ccc(O)cc4c2cc1OCC)C[C@@H]1CCCN1C3.Cl [Compound 14, (S)-6,7-diethoxy-9,10,11,12,12a,13-hexahydro-9a-aza-cyclopenta[b]triphenylene-3-ol hydrochloride] | 0.0047 µg/mL | > 1 µg/mL | 0.0154 µg/mL | 0.0121 µg/mL | 0.0021 µg/mL |  |  |  |  |  | 
COc1cc2c3c(c4ccc(O)c(Cl)c4c2cc1OC)C[C@@H]1CCCN1C3.CS(=O)(=O)O [Compound 22, (S)-4-chloro-6,7-dimethoxy-9,10,11,12,12a,13-hexahydro-9a-aza-cyclopenta[b]triphenylene-3-ol methanesulfonate] |  |  |  |  |  | 0.00041 µg/mL | >0.1 µg/mL | 0.0006 µg/mL | 0.0041 µg/mL | 0.00071 µg/mL | 
COc1cc2c3c(c4cc(C)c(O)c(C)c4c2cc1OC)C[C@@H]1CCCN1C3.CS(=O)(=O)O [Compound 26, (S)-6,7-dimethoxy-2,4-dimethyl-9,10,11,12,12a,13-hexahydro-9a-aza-cyclopenta[b]triphenylene-3-ol methanesulfonate] |  |  |  |  |  | 0.0597 µg/mL | >10 µg/mL | 0.0321 µg/mL | 0.05 µg/mL | 0.1002 µg/mL | 
COc1ccc2c3c(c4cc(OC)c(OC)cc4c2c1)CN1CCC[C@H]1[C@H]3O [Known Compound 2, (12aS,13S)-3,6,7-trimethoxy-9,10,11,12,12a,13-hexahydro-9a-aza-cyclopenta[b]triphenylene-13-ol, reference compound] |  |  |  |  |  |  |  |  |  |  | Mortality rate (mice; total dose 25 mg/kg, 25 mg/kg): 2/5; Mortality rate (mice; total dose 25 mg/kg, listed as known compound 2, 25 mg/kg): some of the mice also died; Mortality rate (mice; total dose 50 mg/kg, 50 mg/kg): 5/5; Mortality rate (mice; total dose 50 mg/kg, listed as known compound 2, 50 mg/kg): all the mice died
COc1cc2c3c(c4ccc(O)cc4c2cc1OC)[C@H](O)[C@@H]1CCCN1C3 [Known compound 1, (12aS,13S)-6,7-dimethoxy-9,10,11,12,12a,13-hexahydro-9a-aza-cyclopenta[b]triphenylene-3,13-diol, reference compound] |  |  |  |  |  |  |  |  |  |  | Mortality rate (mice; total dose 25 mg/kg): 0/5; Mortality rate (mice; total dose 50 mg/kg, 50 mg/kg): 5/5; Mortality rate (mice; total dose 50 mg/kg, listed as known compound 1, 50 mg/kg): all the mice died
S=C(S)N1CCCC1 [PDTC, pyrrolidine dithiocarbamate, reference compound] |  |  |  |  |  |  |  |  |  |  | IC50 (NFκB; SW480/NRE-Luc cells, 50 ng/mL TNFα, luciferase expression, read-out: NFκB inhibitory activity IC50): 2.4 µg/mL (≈ 16.3 µM); IC50 (SV40 promoter; SW480/SV40-Luc cells, luciferase expression, read-out: SV40 promoter inhibitory activity IC50): > 10 µg/mL
(S)-2-chloro-6,7-dimethoxy-9,10,11,12,12a,13-hexahydro-9a-aza-cyclopenta[b]triphenylene-3-ol methanesulfonate [Compound 21] |  |  |  |  |  | 0.0054 µg/mL | >1 µg/mL | 0.0067 µg/mL | 0.0068 µg/mL | 0.008 µg/mL | 
(S)-2-fluoro-6,7-dimethoxy-9,10,11,12,12a,13-hexahydro-9a-aza-cyclopenta[b]triphenylene-3-ol methanesulfonate [Compound 25] |  |  |  |  |  | 0.0016 µg/mL | >1 µg/mL | 0.0031 µg/mL | 0.007 µg/mL | 0.0026 µg/mL | 
